# Data taken from PubChem BioAssay (NCI).
#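 1) Cells in 96-well plates. 2) Compound, 48 h, 5 concentrations. 3) Linear interpolation between surrounding doses. 4) Unreached endpoint = highest concentration. Abbreviation: GI50, concentration required for 50% inhibition of growth. At the TGI there is no net growth.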
# How the values were obtained:
# Experiment in all cases: NCI-60 cell line screen, 48 h
# SK-OV-3 ovarian = tested on: SK-OV-3 ovarian
# MOLT-4 leukemia = tested on: MOLT-4 leukemia
# HS 578T breast = tested on: HS 578T breast
# EKVX NSCLC = tested on: EKVX NSCLC
# PC-3 prostate = tested on: PC-3 prostate
# IGROV1 ovarian = tested on: IGROV1 ovarian
# SF-295 CNS = tested on: SF-295 CNS
# NCI-H522 lung = tested on: NCI-H522 lung
# NCI-H23 lung = tested on: NCI-H23 lung
# KM12 colon = tested on: KM12 colon
# RXF 393 renal = tested on: RXF 393 renal
# SN12C renal = tested on: SN12C renal
# MCF7 breast = tested on: MCF7 breast
# UACC-257 melanoma = tested on: UACC-257 melanoma
# ACHN renal = tested on: ACHN renal
# BT-549 breast = tested on: BT-549 breast
# CCRF-CEM leukemia = tested on: CCRF-CEM leukemia
# LOX IMVI melanoma = tested on: LOX IMVI melanoma
# MDA-MB-435 = tested on: MDA-MB-435
# MDA-MB-231 breast = tested on: MDA-MB-231 breast
# HCC-2998 colon = tested on: HCC-2998 colon
# UACC-62 melanoma = tested on: UACC-62 melanoma
# K-562 leukemia = tested on: K-562 leukemia
# HL-60(TB) leukemia = tested on: HL-60(TB) leukemia
# NCI/ADR-RES ovarian = tested on: NCI/ADR-RES ovarian
# OVCAR-5 ovarian = tested on: OVCAR-5 ovarian
# M14 melanoma = tested on: M14 melanoma
# 786-0 renal = tested on: 786-0 renal
# COLO 205 colon = tested on: COLO 205 colon
# DU-145 prostate = tested on: DU-145 prostate
# SF-539 CNS = tested on: SF-539 CNS
# NCI-H226 lung = tested on: NCI-H226 lung
# SK-MEL-28 melanoma = tested on: SK-MEL-28 melanoma
# SNB-75 CNS = tested on: SNB-75 CNS
# HCT-116 colon = tested on: HCT-116 colon
# HT29 colon = tested on: HT29 colon
# OVCAR-3 ovarian = tested on: OVCAR-3 ovarian
# A549 NSCLC = tested on: A549 NSCLC
# T-47D breast = tested on: T-47D breast
# UO-31 renal = tested on: UO-31 renal
# CAKI-1 renal = tested on: CAKI-1 renal
# SF-268 CNS = tested on: SF-268 CNS
# OVCAR-8 ovarian = tested on: OVCAR-8 ovarian
# A498 renal = tested on: A498 renal
# HOP-92 NSCLC = tested on: HOP-92 NSCLC
# TK-10 renal = tested on: TK-10 renal
# SR leukemia = tested on: SR leukemia
# U251 CNS = tested on: U251 CNS
# HOP-62 NSCLC = tested on: HOP-62 NSCLC
# SK-MEL-5 melanoma = tested on: SK-MEL-5 melanoma
# SK-MEL-2 melanoma = tested on: SK-MEL-2 melanoma
# OVCAR-4 ovarian = tested on: OVCAR-4 ovarian
# MALME-3M melanoma = tested on: MALME-3M melanoma
# SNB-19 CNS = tested on: SNB-19 CNS
# HCT-15 colon = tested on: HCT-15 colon
# NCI-H460 lung = tested on: NCI-H460 lung
# RPMI-8226 leukemia = tested on: RPMI-8226 leukemia
# SW-620 colon = tested on: SW-620 colon
smiles,measurement,setting,value
C=C(C)[C@@H]1/C=C(/C(C)C)CC[C@@]2(C)OC2CC[C@H](C)CC1=O (stereo not given in full),GI50,SK-OV-3 ovarian,> 100 µM
same,TGI,SK-OV-3 ovarian,> 100 µM
same,GI50,MOLT-4 leukemia,16.3 µM
same,TGI,MOLT-4 leukemia,40.9 µM
same,GI50,HS 578T breast,46 µM
same,TGI,HS 578T breast,> 100 µM
same,GI50,EKVX NSCLC,52.1 µM
same,TGI,EKVX NSCLC,> 100 µM
same,GI50,PC-3 prostate,22.2 µM
same,TGI,PC-3 prostate,54.3 µM
same,GI50,IGROV1 ovarian,24.7 µM
same,TGI,IGROV1 ovarian,> 63.3 µM
same,GI50,SF-295 CNS,27.4 µM
same,TGI,SF-295 CNS,> 71.6 µM
same,GI50,NCI-H522 lung,31.2 µM
same,TGI,NCI-H522 lung,> 93.5 µM
same,GI50,NCI-H23 lung,21.2 µM
same,TGI,NCI-H23 lung,43.9 µM
same,GI50,KM12 colon,18.6 µM
same,TGI,KM12 colon,39.7 µM
same,GI50,RXF 393 renal,3.37 µM
same,TGI,RXF 393 renal,> 49.1 µM
same,GI50,SN12C renal,21 µM
same,TGI,SN12C renal,46 µM
same,GI50,MCF7 breast,27.7 µM
same,TGI,MCF7 breast,> 63.8 µM
same,GI50,UACC-257 melanoma,47.6 µM
same,TGI,UACC-257 melanoma,> 100 µM
same,GI50,ACHN renal,27.5 µM
same,TGI,ACHN renal,> 55 µM
same,GI50,BT-549 breast,38.8 µM
same,TGI,BT-549 breast,> 100 µM
same,GI50,CCRF-CEM leukemia,20.3 µM
same,TGI,CCRF-CEM leukemia,52.3 µM
same,GI50,LOX IMVI melanoma,22.4 µM
same,TGI,LOX IMVI melanoma,> 57.7 µM
same,GI50,MDA-MB-435,26.6 µM
same,TGI,MDA-MB-435,71.6 µM
same,GI50,MDA-MB-231 breast,19.3 µM
same,TGI,MDA-MB-231 breast,49.5 µM
same,GI50,HCC-2998 colon,> 44.4 µM
same,TGI,HCC-2998 colon,> 65.9 µM
same,GI50,UACC-62 melanoma,> 100 µM
same,TGI,UACC-62 melanoma,> 100 µM
same,GI50,K-562 leukemia,19.7 µM
same,TGI,K-562 leukemia,58.6 µM
same,GI50,HL-60(TB) leukemia,25 µM
same,TGI,HL-60(TB) leukemia,76.2 µM
same,GI50,NCI/ADR-RES ovarian,25.4 µM
same,TGI,NCI/ADR-RES ovarian,59.8 µM
same,GI50,OVCAR-5 ovarian,> 43.5 µM
same,TGI,OVCAR-5 ovarian,> 63.5 µM
same,GI50,M14 melanoma,30.8 µM
same,TGI,M14 melanoma,> 62.8 µM
same,GI50,786-0 renal,> 42.8 µM
same,TGI,786-0 renal,> 59.6 µM
same,GI50,COLO 205 colon,24.9 µM
same,TGI,COLO 205 colon,> 61 µM
same,GI50,DU-145 prostate,19.4 µM
same,TGI,DU-145 prostate,36 µM
same,GI50,SF-539 CNS,21.9 µM
same,TGI,SF-539 CNS,42.7 µM
same,GI50,NCI-H226 lung,> 38.8 µM
same,TGI,NCI-H226 lung,> 66.9 µM
same,GI50,SK-MEL-28 melanoma,59.3 µM
same,TGI,SK-MEL-28 melanoma,> 100 µM
same,GI50,SNB-75 CNS,> 100 µM
same,TGI,SNB-75 CNS,> 100 µM
same,GI50,HCT-116 colon,17.3 µM
same,TGI,HCT-116 colon,31.7 µM
same,GI50,HT29 colon,31.6 µM
same,TGI,HT29 colon,98.8 µM
same,GI50,OVCAR-3 ovarian,24.8 µM
same,TGI,OVCAR-3 ovarian,66.1 µM
same,GI50,A549 NSCLC,28.8 µM
same,TGI,A549 NSCLC,> 100 µM
same,GI50,T-47D breast,27.4 µM
same,TGI,T-47D breast,> 80.3 µM
same,GI50,UO-31 renal,23.2 µM
same,TGI,UO-31 renal,> 55.7 µM
same,GI50,CAKI-1 renal,24.1 µM
same,TGI,CAKI-1 renal,53.8 µM
same,GI50,SF-268 CNS,37.7 µM
same,TGI,SF-268 CNS,> 100 µM
same,GI50,OVCAR-8 ovarian,33.9 µM
same,TGI,OVCAR-8 ovarian,> 70.5 µM
same,GI50,A498 renal,31.6 µM
same,TGI,A498 renal,> 93.2 µM
same,GI50,HOP-92 NSCLC,26.3 µM
same,TGI,HOP-92 NSCLC,> 76.7 µM
same,GI50,TK-10 renal,27.6 µM
same,TGI,TK-10 renal,> 79.4 µM
same,GI50,SR leukemia,2.18 µM
same,GI50,U251 CNS,27.6 µM
same,TGI,U251 CNS,> 62.2 µM
same,GI50,HOP-62 NSCLC,30.3 µM
same,TGI,HOP-62 NSCLC,> 57.9 µM
same,GI50,SK-MEL-5 melanoma,19.4 µM
same,TGI,SK-MEL-5 melanoma,37.9 µM
same,GI50,SK-MEL-2 melanoma,52.1 µM
same,TGI,SK-MEL-2 melanoma,> 100 µM
same,GI50,OVCAR-4 ovarian,73.8 µM
same,TGI,OVCAR-4 ovarian,> 100 µM
same,GI50,MALME-3M melanoma,35.3 µM
same,TGI,MALME-3M melanoma,> 100 µM
same,GI50,SNB-19 CNS,60 µM
same,TGI,SNB-19 CNS,> 100 µM
same,GI50,HCT-15 colon,38.6 µM
same,TGI,HCT-15 colon,> 68.6 µM
same,GI50,NCI-H460 lung,18.7 µM
same,TGI,NCI-H460 lung,37.7 µM
same,GI50,RPMI-8226 leukemia,20.1 µM
same,TGI,RPMI-8226 leukemia,54.1 µM
same,GI50,SW-620 colon,25.4 µM
same,TGI,SW-620 colon,65.7 µM
